Experimental data reported in US8785488B2 (Exelixis Patent Company LLC, priority 2009, dated 2014).
Where two headings read alike, the source gives them in different places.

Target: T1, human TGR5 (h-TGR5) (Homo sapiens, UniProt Q8TDU6)
T1 construct: expressed in transfected cells
T1 sequence (Q8TDU6 1-330): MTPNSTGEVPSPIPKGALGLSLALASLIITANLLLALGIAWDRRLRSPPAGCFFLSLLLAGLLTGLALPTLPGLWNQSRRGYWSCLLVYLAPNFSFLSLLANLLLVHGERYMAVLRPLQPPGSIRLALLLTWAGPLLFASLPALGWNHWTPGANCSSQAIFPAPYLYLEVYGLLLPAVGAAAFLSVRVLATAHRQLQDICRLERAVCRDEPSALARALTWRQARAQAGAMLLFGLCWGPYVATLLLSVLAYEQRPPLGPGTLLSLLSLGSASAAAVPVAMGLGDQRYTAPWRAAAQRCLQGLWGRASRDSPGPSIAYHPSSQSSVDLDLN
Experiment: TGR5/CRE-Luciferiase Assay (HEK 293 hTGR5/CRE-Luc cells)
Type: cell-based
How it was run: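 HEK293 cells stably carrying hTGR5 and a CRE-luciferase reporter were exposed to serially diluted compounds (diluted in DMEM with 5% DMSO) for 6 h. Cells were then lysed in luciferase buffer, luminescence was read, and EC50 values were derived from dose-response curves.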

[1] = h-TGR5 CRE-Luc EC50, Table 1, read-out: CRE-Luc (EC50)

Compound	EC50 [1]	EC50 (HEK 293 hTGR5/CRE-Luc cells, 6 hours incubation, luciferase activity, Table 2, read-out: h-TGR5CRE-Luc EC50 (CRE-Luc))
CC(C)(c1ccc(Cl)c(Cl)c1)c1cnc(S(=O)(=O)Cc2c(F)cccc2Cl)n1-c1ccc(Cl)c(Cl)c1 [2-{[(2-chloro-6-fluorophenyl)methyl]sulfonyl}-1-(3,4-dichlorophenyl)-5-[1-(3,4-dichlorophenyl)-1-methylethyl]-1H-imidazole]	1000 to 10000 nM	–
CC(C)(c1ccc(Cl)c(Cl)c1)c1cnc(COc2ccc(C(=O)O)cc2Cl)n1-c1ccc(F)cc1 [3-chloro-4-[({5-[1-(3,4-dichlorophenyl)-1-methylethyl]-1-(4-fluorophenyl)-1H-imidazol-2-yl}methyl)oxy]benzoic acid]	1000 to 10000 nM	–
CC(C)(c1ccc(Cl)c(Cl)c1)c1cnc(COc2ccnc3ccccc23)n1-c1ccc(F)cc1 [4-[({5-[1-(3,4-dichlorophenyl)-1-methylethyl]-1-(4-fluorophenyl)-1H-imidazol-2-yl}methyl)oxy]quinoline]	1000 to 10000 nM	–
CC(C)(c1ccc(Cl)c(Cl)c1)c1cnc(COc2ncc(C(F)(F)F)cc2Cl)n1-c1ccc(F)cc1 [3-chloro-2-[({5-[1-(3,4-dichlorophenyl)-1-methylethyl]-1-(4-fluorophenyl)-1H-imidazol-2-yl}methyl)oxy]-5-(trifluoromethyl)pyridine]	1000 to 10000 nM	–
CC(C)(c1ccc(Cl)c(Cl)c1)c1cnc(SCc2ccc(F)cc2CO)n1-c1ccc(F)cc1 [{2-[({5-[1-(3,4-dichlorophenyl)-1-methylethyl]-1-(4-fluorophenyl)-1H-imidazol-2-yl}thio)methyl]-5-fluorophenyl}methanol]	1000 to 10000 nM	–
CN(C)CCOc1ccc(C(C)(C)c2cnc(SCc3c(F)cccc3Cl)n2-c2ccc(F)cc2)cc1 [2-[(4-{1-[2-{[(2-chloro-6-fluorophenyl)methyl]thio}-1-(4-fluorophenyl)-1H-imidazol-5-yl]-1-methylethyl}phenyl)oxy]-N,N-dimethylethanamine]	1000 to 10000 nM	–
COc1ccc(C(C)(C)c2cnc(S(=O)(=O)CCc3ccc(Cl)c(Cl)c3)n2-c2ccc(F)cc2)cc1OC [5-{1-[3,4-bis(methyloxy)phenyl]-1-methylethyl}-2-{[2-(3,4-dichlorophenyl)ethyl]sulfonyl}-1-(4-fluorophenyl)-1H-imidazole]	< 100 nM	–
CC(C)(c1ccc(Cl)c(Cl)c1)c1cnc(COc2ccc(C(=O)O)cn2)n1-c1ccc(F)cc1 [6-[({5-[1-(3,4-dichlorophenyl)-1-methylethyl]-1-(4-fluorophenyl)-1H-imidazol-2-yl}methyl)oxy]pyridine-3-carboxylic acid]	100 to 1000 nM	–
COc1ccc(C(C)(C)c2cnc(SCc3ccc(F)cc3Cl)n2-c2ccc(F)cc2)cc1Cl [2-{[(2-chloro-4-fluorophenyl)methyl]thio}-5-{1-[3-chloro-4-(methyloxy)phenyl]-1-methylethyl}-1-(4-fluorophenyl)-1H-imidazole]	< 100 nM	–
CC(C)(c1ccc2c(c1)OCCO2)c1cnc(SCc2c(F)cccc2Cl)n1-c1ccc(F)cc1 [2-{[(2-chloro-6-fluorophenyl)methyl]thio}-5-[1-(2,3-dihydro-1,4-benzodioxin-6-yl)-1-methylethyl]-1-(4-fluorophenyl)-1H-imidazole]	< 100 nM	–
COc1ccc(-c2cnc(SCc3c(F)cccc3Cl)n2-c2ccc(F)cc2)cc1OC [5-[3,4-bis(methyloxy)phenyl]-2-{[(2-chloro-6-fluorophenyl)methyl]thio}-1-(4-fluorophenyl)-1H-imidazole]	1000 to 10000 nM	–
CC(C)(c1ccc(Cl)c(Cl)c1)c1cnc(SCc2ccc(C(N)=O)c(Cl)c2)n1-c1ccc(F)cc1 [2-chloro-4-[({5-[1-(3,4-dichlorophenyl)-1-methylethyl]-1-(4-fluorophenyl)-1H-imidazol-2-yl}thio)methyl]benzamide]	100 to 1000 nM	–
CC(C)(c1ccc(Cl)c(Cl)c1)c1cnc(SCc2ccc(Cl)cc2C(=O)O)n1-c1ccc(F)cc1 [5-chloro-2-[({5-[1-(3,4-dichlorophenyl)-1-methylethyl]-1-(4-fluorophenyl)-1H-imidazol-2-yl}thio)methyl]benzoic acid]	100 to 1000 nM	–
CC(C)(c1ccc(Cl)c(Cl)c1)c1cnc(CCc2c(F)cc(C(=O)O)cc2Cl)n1-c1ccc(F)cc1 [3-chloro-4-(2-{5-[1-(3,4-dichlorophenyl)-1-methylethyl]-1-(4-fluorophenyl)-1H-imidazol-2-yl}ethyl)-5-fluorobenzoic acid]	100 to 1000 nM	–
CC(C)(c1ccc(Cl)cc1)c1nnc(SCc2ccc(F)cc2Cl)n1-c1ccc(F)cc1 [Example 6]	–	1000 to 10000 nM
COc1ccc(C(C)(C)c2cnc(S(=O)(=O)CCc3ccc(F)cc3Cl)n2-c2ccc(F)cc2)cc1OC [5-{1-[3,4-bis(methyloxy)phenyl]-1-methylethyl}-2-{[2-(2-chloro-4-fluorophenyl)ethyl]sulfonyl}-1-(4-fluorophenyl)-1H-imidazole]	< 100 nM	–
CC(C)(c1ccc(Cl)c(Cl)c1)c1cnc(SCc2ccc(-c3nnn[nH]3)c(Cl)c2)n1-c1ccc(F)cc1 [5-{2-chloro-4-[({5-[1-(3,4-dichlorophenyl)-1-methylethyl]-1-(4-fluorophenyl)-1H-imidazol-2-yl}thio)methyl]phenyl}-1H-tetrazole]	100 to 1000 nM	–
CC(C)(c1ccc(Cl)c(Cl)c1)c1cnc(SCc2ccc(F)c(C(=O)NCCc3c[nH]cn3)c2)n1-c1ccc(F)cc1 [5-[({5-[1-(3,4-dichlorophenyl)-1-methylethyl]-1-(4-fluorophenyl)-1H-imidazol-2-yl}thio)methyl]-2-fluoro-N-[2-(1H-imidazol-4-yl)ethyl]benzamide]	100 to 1000 nM	–
CC(C)(c1ccc(Cl)c(Cl)c1)c1cnc(S(=O)(=O)Cc2ccc(Cl)c(Cl)c2)n1-c1ccc(F)cc1 [5-[1-(3,4-dichlorophenyl)-1-methylethyl]-2-{[(3,4-dichlorophenyl)methyl]sulfonyl}-1-(4-fluorophenyl)-1H-imidazole]	1000 to 10000 nM	–
CC(C)(c1ccc(Cl)c(Cl)c1)c1cnc(SCc2ccc(F)c(-c3nnn[nH]3)c2)n1-c1ccc(F)cc1 [5-{5-[({5-[1-(3,4-dichlorophenyl)-1-methylethyl]-1-(4-fluorophenyl)-1H-imidazol-2-yl}thio)methyl]-2-fluorophenyl}-1H-tetrazole]	100 to 1000 nM	–
CC(C)(C(=O)O)c1cc(CSc2ncc(C(C)(C)c3ccc(Cl)c(Cl)c3)n2-c2ccc(F)cc2)ccc1F [2-{5-[({5-[1-(3,4-dichlorophenyl)-1-methylethyl]-1-(4-fluorophenyl)-1H-imidazol-2-yl}thio)methyl]-2-fluorophenyl}-2-methylpropanoic acid]	1000 to 10000 nM	–
CC(C)(C)OC(=O)N1CCC(CSc2ncc(C(C)(C)c3ccc(F)c(F)c3)n2-c2ccc(F)cc2)CC1 [1,1-dimethylethyl 4-[({5-[1-(3,4-difluorophenyl)-1-methylethyl]-1-(4-fluorophenyl)-1H-imidazol-2-yl}thio)methyl]piperidine-1-carboxylate]	100 to 1000 nM	–
CC(C)(c1ccc(O)c(O)c1)c1cnc(SCc2ccc(F)cc2Cl)n1-c1ccc(F)cc1 [4-{1-[2-{[(2-chloro-4-fluorophenyl)methyl]thio}-1-(4-fluorophenyl)-1H-imidazol-5-yl]-1-methylethyl}benzene-1,2-diol]	< 100 nM	–
CC(C)(c1ccc(Cl)c(OCCN2CCOCC2)c1)c1cnc(SCc2c(F)cccc2Cl)n1-c1ccc(F)cc1 [4-{2-[(2-chloro-5-{1-[2-{[(2-chloro-6-fluorophenyl)methyl]thio}-1-(4-fluorophenyl)-1H-imidazol-5-yl]-1-methylethyl}phenyl)oxy]ethyl}morpholine]	100 to 1000 nM	–
